Results as given in patent US11382918B2, “Methods for treating Huntington's Disease” (PTC Therapeutics, Inc., priority 2017, dated 2022).
Where a name gives a salt, the structure may show the parent alone.

Tested on: Endogenous Huntingtin Protein (HTT)
Test: Endogenous Huntingtin Protein Assay (ELISA-based MSD electrochemiluminescence)
Assay type: cell-based
Settings: Table 1
Procedure, shortened: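 MSD electrochemiluminescence sandwich ELISA for endogenous HTT: sample lysates captured overnight at 4 °C on MW1 (expanded polyglutamine) or MAB2166 antibody. Detection used rabbit monoclonal #5656S, then goat anti-rabbit SULFO-TAG antibody, each 1 h at room temperature.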

IC50 [nM]	Structure (SMILES)
3000 to 33000	Cc1nc2ccc(-c3cc(=O)n4cc(N5CCNCC5)ccc4n3)cn2c1C [compound 125, 2-(2,3-dimethylimidazo[1,2-a]pyridin-6-yl)-7-(piperazin-1-yl)-4H-pyrido[1,2-a]pyrimidin-4-one]
3000 to 33000	Cc1cn2nc(-c3cc(=O)n4cc(C5CCN(C6CC6)CC5)ccc4n3)cc2c(C)n1 [compound 641, 7-(1-cyclopropylpiperidin-4-yl)-2-(4,6-dimethylpyrazolo[1,5-a]pyrazin-2-yl)-4H-pyrido[1,2-a]pyrimidin-4-one]
3000 to 33000	Cc1cn2cc(-c3cc(=O)n4cc(C5CCN(C)CC5)ncc4n3)cc(C)c2n1 [compound 592, 2-(2,8-dimethylimidazo[1,2-a]pyridin-6-yl)-7-(1-methylpiperidin-4-yl)-4H-pyrazino[1,2-a]pyrimidin-4-one]
3000 to 33000	Cc1cc(=O)n2cc(-c3cc(=O)n4cc(N5CCNCC5)ccc4n3)ccc2n1 [compound 837, 2′-methyl-7-(piperazin-1-yl)-4H,4′H-2,7′-bipyrido[1,2-a]pyrimidine-4,4′-dione]
100 to 500	CCN1CCC(c2cn3c(=O)cc(-c4cc(C)c5nn(C)cc5c4)nc3c(C)n2)CC1 [compound 874, 2-(2,7-dimethyl-2H-indazol-5-yl)-7-(1-ethylpiperidin-4-yl)-9-methyl-4H-pyrazino[1,2-a]pyrimidin-4-one hydrochloride (1:1)]
3000 to 33000	Cc1cc(-c2cc(=O)n3cc(N4CCN(C)[C@@H](C)C4)ccc3n2)cc2cn(C)nc12 [compound 751, 2-(2,7-dimethyl-2H-indazol-5-yl)-7-[(3S)-3,4-dimethylpiperazin-1-yl]-4H-pyrido[1,2-a]pyrimidin-4-one]
3000 to 33000	Cc1cc(-c2cc(=O)n3cc(N4CCN(C)CC4)ccc3n2)cc2cnn(C)c12 [compound 846, 2-(1,7-dimethyl-1H-indazol-5-yl)-7-(4-methylpiperazin-1-yl)-4H-pyrido[1,2-a]pyrimidin-4-one]
100 to 500	CCN1CCC(c2ccc3nc(-c4cc(C)c5nn(C)cc5c4)cc(=O)n3c2)CC1 [compound 753, 2-(2,7-dimethyl-2H-indazol-5-yl)-7-(1-ethylpiperidin-4-yl)-4H-pyrido[1,2-a]pyrimidin-4-one]
1000 to 3000	CCc1nc(C)cn2nc(-c3cc(=O)n4cc(N5CCNCC5)ccc4n3)cc12 [compound 546, 2-(4-ethyl-6-methylpyrazolo[1,5-a]pyrazin-2-yl)-7-(piperazin-1-yl)-4H-pyrido[1,2-a]pyrimidin-4-one]
3000 to 33000	Cc1cn2cc(-c3cc(=O)n4cc(N5CCN(C)CC5)ccc4n3)ccc2n1 [compound 114, 2-(2-methylimidazo[1,2-a]pyridin-6-yl)-7-(4-methylpiperazin-1-yl)-4H-pyrido[1,2-a]pyrimidin-4-one]
3000 to 33000	Cc1cn2nc(-c3cc(=O)n4cc(N5CCN6CCC[C@@H]6C5)ccc4n3)cc2c(C)n1 [compound 337, 2-(4,6-dimethylpyrazolo[1,5-a]pyrazin-2-yl)-7-[(8aR)-hexahydropyrrolo[1,2-a]pyrazin-2(1H)-yl]-4H-pyrido[1,2-a]pyrimidin-4-one]
3000 to 33000	CN1CCN(c2cn3c(=O)cc(-c4ccc5nn(C)cc5c4)nc3cn2)CC1 [compound 589, 2-(2-methyl-2H-indazol-5-yl)-7-(4-methylpiperazin-1-yl)-4H-pyrazino[1,2-a]pyrimidin-4-one]
3000 to 33000	COc1ccc(-c2cc(=O)n3cc(N4CCNCC4)ccc3n2)cn1 [compound 88, 2-(6-methoxypyridin-3-yl)-7-(piperazin-1-yl)-4H-pyrido[1,2-a]pyrimidin-4-one]
3000 to 33000	COc1cncc(-c2cc(=O)n3cc(N4CCNCC4)ccc3n2)c1 [compound 229, 2-(5-methoxypyridin-3-yl)-7-(piperazin-1-yl)-4H-pyrido[1,2-a]pyrimidin-4-one]
1000 to 3000	Cn1cc2cc(-c3cc(=O)n4cc(N5CCNCC5)ccc4n3)ccc2n1 [compound 137, 2-(2-methyl-2H-indazol-5-yl)-7-(piperazin-1-yl)-4H-pyrido[1,2-a]pyrimidin-4-one]
500 to 1000	CCc1cc(-c2cc(=O)n3cc(N4CCN(CCO)[C@H](C)C4)ccc3n2)cn2cc(C)nc12 [compound 649, 2-(8-ethyl-2-methylimidazo[1,2-a]pyridin-6-yl)-7-[(3R)-4-(2-hydroxyethyl)-3-methylpiperazin-1-yl]-4H-pyrido[1,2-a]pyrimidin-4-one]
1000 to 3000	Cc1cn2cc(-c3cc(=O)n4cc(C5CCN(CCO)CC5)ncc4n3)cc(C)c2n1 [compound 594, 2-(2,8-dimethylimidazo[1,2-a]pyridin-6-yl)-7-[1-(2-hydroxyethyl)piperidin-4-yl]-4H-pyrazino[1,2-a]pyrimidin-4-one]

IC50 [nM]	Structure (SMILES)
1000 to 3000	Cc1cn2cc(-c3cc(=O)n4cc(C5CCN(C(C)C)CC5)ncc4n3)cc(Cl)c2n1 [compound 595, 2-(8-chloro-2-methylimidazo[1,2-a]pyridin-6-yl)-7-[1-(propan-2-yl)piperidin-4-yl]-4H-pyrazino[1,2-a]pyrimidin-4-one]
1000 to 3000	Cc1nc2cc(-c3cc(=O)n4cc(N5CCN[C@@H](C)C5)ccc4n3)ccc2s1 [compound 135, 2-(2-methyl-1,3-benzothiazol-5-yl)-7-[(3S)-3-methylpiperazin-1-yl]-4H-pyrido[1,2-a]pyrimidin-4-one]
3000 to 33000	Cc1ccc2nc(-c3cc(=O)n4cc(N5CCN(C)CC5)ccc4n3)cn2c1 [compound 836, 2-(6-methylimidazo[1,2-a]pyridin-2-yl)-7-(4-methylpiperazin-1-yl)-4H-pyrido[1,2-a]pyrimidin-4-one]
< 100	Cc1cn2nc(-c3cc(=O)n4cc(C5CCNCC5)nc(C)c4n3)ccc2n1 [compound 870, 9-methyl-2-(2-methylimidazo[1,2-b]pyridazin-6-yl)-7-(piperidin-4-yl)-4H-pyrazino[1,2-a]pyrimidin-4-one hydrochloride (1:2)]
1000 to 3000	CCc1nc(C)cn2nc(-c3cc(=O)n4cc(C5CCN(CCO)CC5)cc(C)c4n3)cc12 [compound 793, 2-(4-ethyl-6-methylpyrazolo[1,5-a]pyrazin-2-yl)-7-[1-(2-hydroxyethyl)piperidin-4-yl]-9-methyl-4H-pyrido[1,2-a]pyrimidin-4-one]
3000 to 33000	O=c1cc(-c2cnc3[nH]ccc3c2)nc2ccc(N3CCNCC3)cn12 [compound 128, 7-(piperazin-1-yl)-2-(1H-pyrrolo[2,3-b]pyridin-5-yl)-4H-pyrido[1,2-a]pyrimidin-4-one]
3000 to 33000	Cc1cn2cc(-c3cc(=O)n4cc(N5CCN[C@H](C)C5)ccc4n3)cc(C(F)(F)F)c2n1 [compound 734, 7-[(3R)-3-methylpiperazin-1-yl]-2-[2-methyl-8-(trifluoromethyl)imidazo[1,2-a]pyridin-6-yl]-4H-pyrido[1,2-a]pyrimidin-4-one]
3000 to 33000	Cc1cc(-c2cc(=O)n3cc(N4CCNCC4)ccc3n2)cc2cnn(C)c12 [compound 776, 2-(1,7-dimethyl-1H-indazol-5-yl)-7-(piperazin-1-yl)-4H-pyrido[1,2-a]pyrimidin-4-one]
1000 to 3000	CCc1nc(C)cn2nc(-c3cc(=O)n4cc(N5CCN(CCCF)[C@H](C)C5)ccc4n3)cc12 [compound 667, 2-(4-ethyl-6-methylpyrazolo[1,5-a]pyrazin-2-yl)-7-[(3R)-4-(3-fluoropropyl)-3-methylpiperazin-1-yl]-4H-pyrido[1,2-a]pyrimidin-4-one]
3000 to 33000	Cc1cn2cc(-c3cc(=O)n4cc(N5CCN[C@@H](C)C5)ccc4n3)cc(C(F)(F)F)c2n1 [compound 735, 7-[(3S)-3-methylpiperazin-1-yl]-2-[2-methyl-8-(trifluoromethyl)imidazo[1,2-a]pyridin-6-yl]-4H-pyrido[1,2-a]pyrimidin-4-one]
3000 to 33000	CCc1nc(C)cn2nc(-c3cc(=O)n4cc(C5CCN(C)CC5)cc(C)c4n3)cc12 [compound 774, 2-(4-ethyl-6-methylpyrazolo[1,5-a]pyrazin-2-yl)-9-methyl-7-(1-methylpiperidin-4-yl)-4H-pyrido[1,2-a]pyrimidin-4-one]
1000 to 3000	Cc1cc(-c2cc(=O)n3cc(N4CCN(C)CC4)ccc3n2)cc2cn(C)nc12 [compound 768, 2-(2,7-dimethyl-2H-indazol-5-yl)-7-(4-methylpiperazin-1-yl)-4H-pyrido[1,2-a]pyrimidin-4-one]
3000 to 33000	Cc1cn2nc(-c3cc(=O)n4cc(C5CCN(CCO)CC5)ccc4n3)cc2c(C)n1 [compound 530, 2-(4,6-dimethylpyrazolo[1,5-a]pyrazin-2-yl)-7-[1-(2-hydroxyethyl)piperidin-4-yl]-4H-pyrido[1,2-a]pyrimidin-4-one]
3000 to 33000	CCCc1nc(C)cn2nc(-c3cc(=O)n4cc(N5CCN[C@H](C)C5)ccc4n3)cc12 [compound 727, 7-[(3R)-3-methylpiperazin-1-yl]-2-(6-methyl-4-propylpyrazolo[1,5-a]pyrazin-2-yl)-4H-pyrido[1,2-a]pyrimidin-4-one]
1000 to 3000	Cc1cn2cc(-c3cc(=O)n4cc(N5CCNCC5)ccc4n3)cc(C)c2n1 [compound 141, 2-(2,8-dimethylimidazo[1,2-a]pyridin-6-yl)-7-(piperazin-1-yl)-4H-pyrido[1,2-a]pyrimidin-4-one]
3000 to 33000	Cc1nc(O)c2cc(-c3cc(=O)n4cc(N5CCNCC5)ccc4n3)ccc2n1 [compound 840, 2-(4-hydroxy-2-methylquinazolin-6-yl)-7-(piperazin-1-yl)-4H-pyrido[1,2-a]pyrimidin-4-one]

Structure (SMILES)	IC50 [nM]
Cc1nc(C2=CCNCC2)cn2c(=O)cc(-c3ccc4nn(C)cc4c3)nc12 [compound 791, 9-methyl-2-(2-methyl-2H-indazol-5-yl)-7-(1,2,3,6-tetrahydropyridin-4-yl)-4H-pyrazino[1,2-a]pyrimidin-4-one]	< 100
CCN1CC=C(c2cn3c(=O)cc(-c4ccc5nc(C)cn5n4)nc3cn2)CC1 [compound 842, 7-(1-ethyl-1,2,3,6-tetrahydropyridin-4-yl)-2-(2-methylimidazo[1,2-b]pyridazin-6-yl)-4H-pyrazino[1,2-a]pyrimidin-4-one]	3000 to 33000
